# Laboratory results taken from US10407445B2, “Hepatitis C virus inhibitors” (ENANTA PHARMACEUTICALS, INC., priority 2013, dated 2019).
# Key:
# Assay type in all cases: cell-based
# [1] = system: HCV GT 1a replicon; assay: HCV replicon assay, stable GT 1a replicon (Renilla luciferase); conditions: Hepatitis C virus, GT1A; HCV GT 1a replicon, 72 h; read-out: EC50 1a
# Procedure: (§1) The activity of compounds was determined against HCV replicons representing genotypes (GT) 1a, 1b, 2a, and 3a. To generate stable Huh-7.5-based cell lines, HCV replicons were engineered to express the Renilla luciferase reporter (hRluc) fused to the neomycin phosphotransferase (Neo) gene. GT2a and GT3a HCV replicons were based on the JFH-1 subgenomic replicon (Kato et al. 2003 Gastroenterology, 125:1808-1817), in which the NS5A gene was replaced with that of strains J6 and S52 (GT2a and G3a, respectively). The activity of compounds against GT1a replicons encoding NS5A mutations (M28T, Q30R, L31M, Y93C, and Y93H) was also determined in a transient replication assay. The parental GT1a and GT2a replicons (pH/SG-Neo(L+I) and pSG-Neo-JFH1, respectively) were licensed from Apath LLC (Saint Louis, Mo.). The parental GT 1b replicon (pFKi389lucubineo_3_3′_ET) was licensed from ReBLikon GmbH (Germany). HCV replicons were constructed by standard molecular biology techniques described below. All replicon constructs were verified by restriction enzyme digestion and DNA sequencing.
# pH/SG-Neo(L+I) was modified to add the firefly luciferase reporter gene and additional adaptive mutations by replacing the pH/SG-Neo(L+I) NS3-NS5A coding region with the corresponding sequence of pH77-S, creating pH/SG-lucubineo-H77S as described (Borawski J et al. 2009, J Virol 83: 10058-10074). Subsequently, the firefly luciferase-Neo cassette was replaced with the hRluc-Neo cassette. To create a unique cloning site, the NotI restriction site in NS5B was removed using QuickChange II XL Site-Directed Mutagenesis Kit (Agilent) and the following primers: NotI KO Fwd 5′-CTCAAACTCACTCCAATAGCTGCCGCTGGCCGGCTGGAC-3′(G→T mutation removing NotI site underlined) (SEQ. ID No. 1) and NotI KO Rev 5′-GTCCAGCGGGCCAGCGGCAGCTATTGGAGTGAGTTTGAG-3′(C→A mutation removing NotI site underlined) (SEQ. ID No. 2). The resulting vector, pH/SG-lucubineo-H775-NotIKO, was sequenced to confirm the NS5B gene. The hRluc-Neo cassette was PCR amplified from pF9 cytomegalovirus (CMV) hRluc-Neo Flexi(R) (Promega) using Accuprime Super Mix II (Invitrogen) and the following primers, which introduce restriction sites: […]
# The amplification product was subcloned into pCR2.1-TOPO (Invitrogen). The resulting plasmid was digested with AscI and NotI, and the excised hRluc-Neo fragment was ligated using the Promega Rapid Ligation Kit (Promega) into pH/SG-lucubineo-H775-NotIKO digested with the same enzymes.
# Stable HCV replicon cell lines were grown in complete media (Dulbecco's modified Eagle medium [DMEM], 2 mM L-glutamine, 0.1 mM essential amino acids, 1 mM sodium pyruvate, 10% heat inactivated fetal bovine serum) with the addition 500 μg/ml […] (G418). Huh7-lunet cells were maintained in the same medium without the addition of G418. Cells were routinely passaged at a dilution of 1:4 two times a week. The assay medium for both luciferase reporter HCV replicon and cytotoxicity assays used phenol red-free DMEM and lacked G418. For each stable replicon assay, a sixteen point half-log dilution series of compound was stamped (0.5 ul compound per well) into three replica 384-well plates, to which cells were added directly (4000 cells/well). For the transient replication assay, Huh7-lunet cells in ice-cold phosphate buffered saline (PBS) were electroporated (BioRad electroporator; 950 uF, 270V) with 10 ug purified in vitro transcribed HCV replicon RNA, followed by resuspension in complete media and plating (8000 cells/well) into compound stamped 384-well plates. Luciferase activity of compound-treated cells was measured relative to DMSO-treated cells after 72 h incubation using RENILLA-GLO™ Luciferase Assay (Promega). Cytotoxicity (CC50) in the GT1b replicon cell line was analyzed using CELL TITER-GLO™ (Promega). […]
# [2] = system: HCV GT 1b replicon; assay: HCV replicon assay, stable GT 1b replicon (Renilla luciferase); conditions: Hepatitis C virus, GT1B, 72 h
# Procedure: as §1
# The hRluc-Neo cassette was PCR amplified from pF9 cytomegalovirus (CMV) hRluc-Neo Flexi(R) (Promega) using Accuprime Super Mix II (Invitrogen) and the following primers, which introduce restriction sites: […]
# The amplification product was subcloned into pCR2.1-TOPO (Invitrogen). The resulting plasmid was digested with AscI and NotI, and the excised hRluc-Neo fragment was ligated using the Roche Quick Ligation Kit (Roche) into pFKi389lucubineo_3_3′_ET digested with the same enzymes.
# Stable HCV replicon cell lines were grown in complete media (Dulbecco's modified Eagle medium [DMEM], 2 mM L-glutamine, 0.1 mM essential amino acids, 1 mM sodium pyruvate, 10% heat inactivated fetal bovine serum) with the addition 500 μg/ml […] (G418). Huh7-lunet cells were maintained in the same medium without the addition of G418. Cells were routinely passaged at a dilution of 1:4 two times a week. The assay medium for both luciferase reporter HCV replicon and cytotoxicity assays used phenol red-free DMEM and lacked G418. For each stable replicon assay, a sixteen point half-log dilution series of compound was stamped (0.5 ul compound per well) into three replica 384-well plates, to which cells were added directly (4000 cells/well). For the transient replication assay, Huh7-lunet cells in ice-cold phosphate buffered saline (PBS) were electroporated (BioRad electroporator; 950 uF, 270V) with 10 ug purified in vitro transcribed HCV replicon RNA, followed by resuspension in complete media and plating (8000 cells/well) into compound stamped 384-well plates. Luciferase activity of compound-treated cells was measured relative to DMSO-treated cells after 72 h incubation using RENILLA-GLO™ Luciferase Assay (Promega). Cytotoxicity (CC50) in the GT1b replicon cell line was analyzed using CELL TITER-GLO™ (Promega).
# The compounds of the present invention can be effective against the HCV 1b genotype. It should also be understood that the compounds of the present invention can inhibit multiple genotypes of HCV. In one embodiment compound of the present invention are active against the 1a, 1b, 2a, 2b, 3a, 4a, and 5a genotypes. In another embodiment compound of the present invention are active against the HCV resistant mutants. […] EC50s are in pM against HCV GT 1a and GT 1b; and nM against GT 2a-J6, GT 3a and GT1a resistant variants (M28T, Q30R, L31V, Y93C and Y93H).
# [3] = system: GT1a replicon encoding NS5A mutation M28T; assay: Transient replication assay, GT1a replicon with NS5A mutation M28T; conditions: Hepatitis C virus, read-out: EC50 1a M28T
# [4] = system: GT1a replicon encoding NS5A mutation Q30R; assay: Transient replication assay, GT1a replicon with NS5A mutation Q30R; conditions: Hepatitis C virus, read-out: EC50 1a Q30R
# [5] = system: GT1a replicon encoding NS5A mutation L31V; assay: Transient replication assay, GT1a replicon with NS5A mutation L31V; conditions: Hepatitis C virus, read-out: EC50 1a L31V
# [6] = system: GT1a replicon encoding NS5A mutation Y93C; assay: Transient replication assay, GT1a replicon with NS5A mutation Y93C; conditions: Hepatitis C virus, read-out: EC50 1a Y93C
# [7] = system: GT1a replicon encoding NS5A mutation Y93H; assay: Transient replication assay, GT1a replicon with NS5A mutation Y93H; conditions: Hepatitis C virus, read-out: EC50 1a Y93H
SMILES,EC50 [1],EC50 [2],EC50 [3],EC50 [4],EC50 [5],EC50 [6],EC50 [7]
COC(=O)N[C@H](C(=O)N1[C@H](c2nc3ccc4cc(-c5ccc(-c6cnc([C@@H]7C[C@@]8(CCCOC8)CN7C(=O)[C@@H](NC(=O)OC)C7C[C@@H](C)O[C@H](C)C7)[nH]6)cc5)ccc4c3[nH]2)C[C@@H]2CCC[C@@H]21)C(C)C (some centres unmarked) [Compound 43],0.015 nM,0.023 nM,0.04 nM,0.03 nM,0.06 nM,0.04 nM,2 nM
COC(=O)N[C@H](C(=O)N1[C@H](c2ncc(-c3ccc(-c4ccc(-c5cnc([C@@H]6C[C@@]7(CCCOC7)CN6C(=O)[C@@H](NC(=O)OC)C6C[C@@H](C)O[C@H](C)C6)[nH]5)cc4)cc3)[nH]2)C[C@@H]2CCC[C@@H]21)C(C)C (some centres unmarked) [Compound 45],0.023 nM,0.028 nM,0.04 nM,0.03 nM,0.06 nM,0.3 nM,8 nM
